Measurements published in patent publication EP3800188A1, “SUBSTITUTED PYRAZOLOPYRIMIDINES AS IRAK4 INHIBITORS” (Bayer AG, priority 2019, dated 2021).

Tests used:
human IRAK4 = molecular target: T1, human IRAK4 (Homo sapiens, UniProt Q9NWZ3); assay: Human IRAK4 kinase activity inhibition assay (IRAK4 TR-FRET assay); type: biochemical; details: 1 mM ATP, GST-human IRAK4, average or median values
T1 construct: GST (N); made in house; host or cells: baculovirus-infected Hi5 (BTI-TN-5B1-4) insect cells
T1 sequence (Q9NWZ3 1-460): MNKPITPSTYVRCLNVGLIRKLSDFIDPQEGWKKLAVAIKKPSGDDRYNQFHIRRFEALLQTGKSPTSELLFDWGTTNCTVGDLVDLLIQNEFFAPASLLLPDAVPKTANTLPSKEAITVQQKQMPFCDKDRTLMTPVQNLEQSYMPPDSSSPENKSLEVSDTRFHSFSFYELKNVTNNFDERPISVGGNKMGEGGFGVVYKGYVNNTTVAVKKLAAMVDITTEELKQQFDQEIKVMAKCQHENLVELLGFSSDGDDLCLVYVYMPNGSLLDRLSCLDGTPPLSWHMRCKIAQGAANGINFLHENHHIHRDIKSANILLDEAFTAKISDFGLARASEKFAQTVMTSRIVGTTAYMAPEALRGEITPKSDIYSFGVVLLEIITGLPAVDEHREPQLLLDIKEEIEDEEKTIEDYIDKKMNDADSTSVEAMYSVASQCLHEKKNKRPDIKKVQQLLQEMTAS
Summary of the method: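 Signal was the 665/620 nm emission ratio from a europium anti-mouse-IgG, anti-phosphoserine antibody and streptavidin-XL665 complex formed over 1 h at 22°C. It was scaled between no-enzyme (100%) and no-compound (0%) wells. Beforehand, compounds (20 µM down to 0.073 nM, 11 points) sat 15 min with roughly 0.2 nM insect-cell-expressed GST-human IRAK4 before phosphorylation of a biotinylated peptide substrate.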

[1] = Metabolic stability in human liver microsomes; details: 1 µM compound; for CLblood, human microsomes: hepatic in vivo blood clearance calculated with well stirred liver model, '(stable)' given beside < 0.01; for Fmax, human microsomes: maximal oral bioavailability calculated with well stirred liver model, 0.5 mg/mL protein, '(stable)' given beside 100
Description: The in vitro metabolic stability of test compounds was determined by incubating them at 1 µM in a suspension liver microsomes in 100 mM phosphate buffer, pH7.4 (NaH2PO4 x H2O + Na2HPO4 x 2H2O) and at a protein concentration of 0.5 mg/mL at 37° C. The microsomes were activated by adding a co-factor mix containing 8 mM Glukose-6-Phosphat, 4 mM MgCl2, 0.5 mM NADP and 1 IU/mL G-6-P-Dehydrogenase in phosphate buffer, pH 7.4. The metabolic assay was started shortly afterwards by adding the test compound to the incubation at a final volume of 1 mL. Organic solvent in the incubations was limited to ≤0.01 % dimethylsulfoxide (DMSO) and ≤1% acetonitril. During incubation, the microsomal suspensions were continuously shaken at 580 rpm, and aliquots were taken at 2, 8, 16, 30, 45 and 60 min, to which equal volumes of cold methanol were immediately added. Samples were frozen at -20° C over night, subsequently centrifuged for 15 min at 3000 rpm and the supernatant was analyzed with an Agilent 1200 HPLC-system with LCMS/MS detection.
The half-life of a test compound was determined from the concentration-time plot. From the half-life the intrinsic clearances were calculated. Together with the additional parameters liver blood flow, specific liver weight and microsomal protein content the hepatic in vivo blood clearance (CL) and the maximal oral bioavailability (Fmax) were calculated using the "well stirred" liver model. The following parameter values were used: Liver blood flow - 1.32 L/h/kg (human), 2.1 L/h/kg (dog); specific liver weight - 21 g/kg (human), 39 g/kg (dog); microsomal protein content - 40 mg/g.

SMILES | IC50 (human IRAK4) [nM] | CLblood, human microsomes [1] | Fmax, human microsomes [1]
CC1(O)CCN(C2CN(c3nc(N[C@@H]4CNC(=O)C4)nc4c3cnn4-c3cccc(C(F)(F)F)c3)C2)CC1 [Example I-30, (4S)-4-({4-[3-(4-hydroxy-4-methylpiperidin-1-yl)azetidin-1-yl]-1-[3-(trifluoromethyl)phenyl]-1H-pyrazolo[3,4-d]pyrimidin-6-yl)amino)pyrrolidin-2-one] | 6.15 | < 0.01 (stable) L/h/kg | 100 (stable) %
CN1CC[C@H](Nc2nc(N3C[C@@H](O)[C@H](O)C3)c3cnn(-c4cccc(C(F)(F)F)c4)c3n2)C1 [Example I-31, (3R,4R)-1-(6-{[(3S)-1-methylpyrrolidin-3-yl]amino}-1-[3-(trifluoromethyl)phenyl]-1H-pyrazolo[3,4-d]pyrimidin-4-yl)pyrrolidine-3,4-diol] | 12.6 | < 0.01 (stable) L/h/kg | 100 (stable) %
CC(C)(N)C1CN(c2nc(NC3CCS(=O)(=O)CC3)nc3c2cnn3-c2cccc(C(F)(F)F)c2)C1 [Example I-45, 4-[3-(2-aminopropan-2-yl)azetidin-1-yl]-N-(1,1-dioxidotetrahydro-2H-thiopyran-4-yl)-1-[3-(trifluoromethyl)phenyl]-1H-pyrazolo[3,4-d]pyrimidin-6-amine] | 5.1 | 0.05 L/h/kg | 96%
CC(C)(N)C1CCN(c2nc(NC3CCS(=O)(=O)CC3)nc3c2cnn3-c2cccc(C(F)(F)F)c2)CC1 [Example I-46, 4-[4-(2-aminopropan-2-yl)piperidin-1-yl]-N-(1,1-dioxidotetrahydro-2H-thiopyran-4-yl)-1-[3-(trifluoromethyl)phenyl]-1H-pyrazolo[3,4-d]pyrimidin-6-amine] | 1.4 | 0.25 L/h/kg | 81%
CC(C)(N)C1CCN(c2nc(N[C@@H]3CNC(=O)C3)nc3c2cnn3-c2cccc(C(F)(F)F)c2)CC1 [Example I-47, (4S)-4-({4-[4-(2-aminopropan-2-yl)piperidin-1-yl]-1-[3-(trifluoromethyl)phenyl]-1H-pyrazolo[3,4-d]pyrimidin-6-yl}amino)pyrrolidin-2-one] | 0.861 | 0.17 L/h/kg | 87%
NC1(C2CCN(c3nc(N[C@@H]4CNC(=O)C4)nc4c3cnn4-c3cccc(C(F)(F)F)c3)CC2)CC1 [Example I-48, (4S)-4-({4-[4-(1-aminocyclopropyl)piperidin-1-yl]-1-[3-(trifluoromethyl)phenyl]-1H-pyrazolo[3,4-d]pyrimidin-6-yl}amino)pyrrolidin-2-one] | 1.12 | < 0.01 (stable) L/h/kg | 100 (stable) %
CC(C)(O)CC1CN(c2nc(N[C@@H]3CNC(=O)C3)nc3c2cnn3-c2cccc(C(F)(F)F)c2)C1 [Example I-49, (4S)-4-({4-[3-(2-hydroxy-2-methylpropyl)azetidin-1-yl]-1-[3-(trifluoromethyl)phenyl]-1H-pyrazolo[3,4-d]pyrimidin-6-yl}amino)pyrrolidin-2-one] | 3.85 | 0.13 L/h/kg | 90%
O=C1C[C@H](Nc2nc(N3CC(CC(=O)N4CCOCC4)C3)c3cnn(-c4cccc(C(F)(F)F)c4)c3n2)CN1 [Example I-51, (4S)-4-[(4-{3-[2-(morpholin-4-yl)-2-oxoethyl]azetidin-1-yl}-1-[3-(trifluoromethyl)phenyl]-1H-pyrazolo[3,4-d]pyrimidin-6-yl)amino]pyrrolidin-2-one] | 2.5 | 0.25 L/h/kg | 81%
C[C@]1(N)C[C@@H](Nc2nc(N3CCOCC3)c3cnn(-c4cccc(C(F)(F)F)c4)c3n2)C1 [Example I-58, cis-1-methyl-N^3-{4-(morpholin-4-yl)-1-[3-(trifluoromethyl)phenyl]-1H-pyrazolo[3,4-d]pyrimidin-6-yl}cyclobutane-1,3-diamine] | 23 | < 0.01 (stable) L/h/kg | 100 (stable) %
CC1(N2CCOCC2)CN(c2nc(N[C@H]3C[C@H](S(C)(=O)=O)C3)nc3c2cnn3-c2cccc(C(F)(F)F)c2)C1 [Example I-59, 4-[3-methyl-3-(morpholin-4-yl)azetidin-1-yl]-N-[trans-3-(methylsulfonyl)cyclobutyl]-1-[3-(trifluoromethyl)phenyl]-1H-pyrazolo[3,4-d]pyrimidin-6-amine] | 3.63 | 0.34 L/h/kg | 74%
O=S1(=O)CCC(Nc2nc(N3CC(CN4CCOCC4)C3)c3cnn(-c4cccc(C(F)(F)F)c4)c3n2)CC1 [Example I-60, N-(1,1-dioxidotetrahydro-2H-thiopyran-4-yl)-4-[3-(morpholin-4-ylmethyl)azetidin-1-yl]-1-[3-(trifluoromethyl)phenyl]-1H-pyrazolo[3,4-d]pyrimidin-6-amine] | 34.2 | 0.37 L/h/kg | 72%
NC1(C2CCN(c3nc(NC4CCS(=O)(=O)CC4)nc4c3cnn4-c3cccc(C(F)(F)F)c3)CC2)CC1 [Example I-62, 4-[4-(1-aminocyclopropyl)piperidin-1-yl]-N-(1,1-dioxidotetrahydro-2H-thiopyran-4-yl)-1-[3-(trifluoromethyl)phenyl]-1H-pyrazolo[3,4-d]pyrimidin-6-amine] | 2.57 | < 0.01 (stable) L/h/kg | 100 (stable) %
CC(C)(O)C1CCN(c2nc(N[C@H]3CN4CCC3CC4)nc3c2cnn3-c2cccc(C(F)(F)F)c2)CC1 [Example I-64-1, 2-(1-{6-[(3R)-1-azabicyclo[2.2.2]octan-3-ylamino]-1-[3-(trifluoromethyl)phenyl]-1H-pyrazolo[3,4-d]pyrimidin-4-yl}piperidin-4-yl)propan-2-ol] | 8.58 | 0.32 L/h/kg | 76%
CC(C)(O)CC1CN(c2nc(N[C@H]3C[C@H](S(C)(=O)=O)C3)nc3c2cnn3-c2cccc(C(F)(F)F)c2)C1 [Example I-67, 2-methyl-1-[1-(6-{[trans-3-(methylsulfonyl)cyclobutyl]amino}-1-[3-(trifluoromethyl)-phenyl]-1H-pyrazolo[3,4-d]pyrimidin-4-yl)azetidin-3-yl]propan-2-ol] | 5.33 | 0.24 L/h/kg | 82%
CC(C)(O)CC1CN(c2nc(NC3CN(S(C)(=O)=O)C3)nc3c2cnn3-c2cccc(C(F)(F)F)c2)C1 [Example I-68, 2-methyl-1-[1-(6-{[1-(methylsulfonyl)azetidin-3-yl]amino}-1-[3-(trifluoromethyl)phenyl]-1H-pyrazolo[3,4-d]pyrimidin-4-yl)azetidin-3-yl]propan-2-ol] | 23 | 0.02 L/h/kg | 99%
O[C@H]1C[C@H](Nc2nc(N3CC(N4CCOCC4)C3)c3cnn(-c4cccc(C(F)(F)F)c4)c3n2)C1 [Example I-74, trans-3-({4-[3-(morpholin-4-yl)azetidin-1-yl]-1-[3-(trifluoromethyl)phenyl]-1H-pyrazolo-[3,4-d]pyrimidin-6-yl}amino)cyclobutanol] | 4.83 | 0.11 L/h/kg | 91%
